Columns and labels:
[1] = Pharmacokinetic experiment for beagles, intravenous administration; details: 0.5 mg/kg
Method: (§1) Plasma samples were stored in a refrigerator at −80° C. prior to testing.
as §1

MDA-MB-468 (HER2-) = test: In vitro cytotoxic activity screening, CTG assay, MDA-MB-468; type: cell-based
Method: (§2) In this experiment, the ATP content was determined using CTG to reflect the survival condition of the tumor cells. […] The killing effect of the toxin molecule was then assayed according to this condition.
(§3) According to the purpose of the experiment, two disease models of breast cancer and NSCLC were selected, and three cell strains of SKBR3 tumor cells (HER2+, ATCC, Cat #HTB-30), MDA-MB-468 (HER2-, ATCC, Cat #HTB-132) and A549 (human non-small cell lung cancer cells, ATCC, Cat #CCL-185) were selected for screening.
(§4) The cells were counted, and 4.3×10^5, 7.2×10^5 and 11.5×10^5 cells were each added to a culture solution to give a final volume of 26 mL. 180 μL of cell suspension was added to each well in columns 2 to 11 of a 96-well plate (Corning, Cat #3903) to give cell densities of 3K, 5K and 8K per well. Wells in column 12 were each filled with 200 μL of culture solution and the remaining wells were each filled with PBS. The SKBR3 and MDA-MB-468 cells were subjected to the same operations described above. […] 2 mM stock solution (stock solution diluted 10-fold in DMSO) was prepared in column 1 of drug preparation plate 1, and then 10-fold gradient dilution in DMSO was performed through column 10, and the wells in column 11 were filled with DMSO. […] The absorption value was read using a microplate reader and IC50 was calculated.

[2] = tested on: A549 (human non-small cell lung cancer cells); test: In vitro cytotoxic activity screening, CTG assay, A549; type: cell-based
Method: as §2, §3, §4

[3] = tested on: SKBR3 tumor cells (HER2+); test: In vitro cytotoxic activity screening, CTG assay, SKBR3; type: cell-based
Method: as §2, §3, §4

C=C1C[C@@H]2CC[C@@]34C[C@H]5O[C@H]6[C@@H](O3)[C@H]3O[C@H](CC[C@@H]3O[C@H]6[C@H]5O4)CC(=O)C[C@@H]3[C@@H](OC)[C@@H](C[C@@H](CN)OC)O[C@H]3C[C@H]3O[C@@H](CC[C@@H]1O2)C[C@@H](C)C3=C [Compound 1]
Plasma concentration C5 min [1]: 82.1 ng/mL
IC50 (MDA-MB-468 (HER2-); Homo sapiens, MDA-MB-468, read-out: IC50 (nM) MDA-MB-468): 0.183 nM
Maximum inhibition rate (%) MDA-MB-468 (MDA-MB-468 (HER2-); MDA-MB-468, CTG): 88.01%
Maximum inhibition rate (%) A549 ([2]; A549, CTG): 81.34%
IC50 ([2]; Homo sapiens, A549, read-out: IC50 (nM) A549): 0.515 nM
IC50 ([3]; Homo sapiens, SK-BR-3, read-out: IC50 (nM) SKBR3): 0.205 nM
Maximum inhibition rate (%) SKBR3 ([3]; SKBR3, CTG): 96.87%
